What was measured:
lettuce (Green Wave) = assay: Example 17: Growth-promoting effect (lettuce, seed treatment); assay type: in vivo; settings: for Increase/decrease of above-ground part / Increase/decrease of underground part: non-addition group = 100%; for Weight of above-ground part FW / Weight of underground part FW: 25° C., 28 days
Procedure: For lettuce (Green Wave, Takii & Co., Ltd.), seed dressing was carried out by application, at 5% seed weight, of a dilution of hesperidin prepared at a final concentration of 1 to 100 ppm (using water as the solvent). The dressed lettuce seeds were sown on a cell tray filled with seedling culture soil (manufactured by Nihon Hiryo Co., Ltd.; “Naebijin N100”). […]

Dent corn (34V52) = assay: Example 14: Growth-promoting effect (dent corn); assay type: in vivo; settings: for Increase/decrease of above-ground part / Increase/decrease of underground part: non-addition group = 100%; for Weight of above-ground part FW / Weight of underground part FW: 25° C., 14 days
Procedure: Dent corn (34V52) was sown on pots filled with seedling culture soil (manufactured by Katakura & Co-op Agri Corporation; Kumiai seedling culture soil for gardening Genkikun No. 1) (soil volume, 130 ml). After confirmation of the germination, drenching treatment was carried out with 5 ml each of dilutions of hesperidin prepared at final concentrations of 1 to 10 ppm (using water as the solvent). […]

[1] = seed treatment (dressing) 1 ppm
[2] = seed treatment (dressing) 10 ppm
[3] = seed treatment (dressing) 100 ppm

COc1ccc([C@@H]2CC(=O)c3c(O)cc(O[C@@H]4O[C@H](CO[C@@H]5O[C@@H](C)[C@H](O)[C@@H](O)[C@H]5O)[C@@H](O)[C@H](O)[C@H]4O)cc3O2)cc1O [Hesperidin]
Increase/decrease of above-ground part (lettuce (Green Wave); 1 ppm): 109% | Increase/decrease of underground part (lettuce (Green Wave); 1 ppm): 133% | Increase/decrease of above-ground part (lettuce (Green Wave); 10 ppm): 113% | Increase/decrease of underground part (lettuce (Green Wave); 10 ppm): 142% | Increase/decrease of above-ground part (lettuce (Green Wave); 100 ppm): 149% | Increase/decrease of underground part (lettuce (Green Wave); 100 ppm): 126% | Weight of above-ground part FW (lettuce (Green Wave); [1]): 27.4 mg/individual | Weight of underground part FW (lettuce (Green Wave); [1]): 7.6 mg/individual | Weight of above-ground part FW (lettuce (Green Wave); [2]): 28.3 mg/individual | Weight of underground part FW (lettuce (Green Wave); [2]): 8.1 mg/individual | Weight of above-ground part FW (lettuce (Green Wave); [3]): 37.4 mg/individual | Weight of underground part FW (lettuce (Green Wave); [3]): 7.2 mg/individual | Increase/decrease of above-ground part (Dent corn (34V52); 1 ppm): 114% | Increase/decrease of underground part (Dent corn (34V52); 1 ppm): 126% | Increase/decrease of above-ground part (Dent corn (34V52); 3 ppm): 111% | Increase/decrease of underground part (Dent corn (34V52); 3 ppm): 123% | Increase/decrease of above-ground part (Dent corn (34V52); 10 ppm): 104% | Increase/decrease of underground part (Dent corn (34V52); 10 ppm): 103% | Weight of above-ground part FW (Dent corn (34V52); drenching 1 ppm): 6.5 mg/individual | Weight of underground part FW (Dent corn (34V52); drenching 1 ppm): 5.1 mg/individual | Weight of above-ground part FW (Dent corn (34V52); drenching 3 ppm): 6.3 mg/individual | Weight of underground part FW (Dent corn (34V52); drenching 3 ppm): 5.0 mg/individual | Weight of above-ground part FW (Dent corn (34V52); drenching 10 ppm): 5.9 mg/individual | Weight of underground part FW (Dent corn (34V52); drenching 10 ppm): 4.2 mg/individual

Source: US20220095617A1, “PLANT GROWTH REGULATING AGENT” (IDEMITSU KOSAN CO.,LTD., priority 2019, published 2022)
